Source: US20210000792A1, “METHODS FOR REDUCING OR PREVENTING CARDIOVASCULAR EVENTS IN PATIENTS WITH TYPE II DIABETES MELLITUS” (Janssen Pharmaceutica NV, priority 2017, published 2021)

What was measured:
[1] = system: men and women with type 2 diabetes and history or high risk of cardiovascular disease; assay: CANVAS Program: integrated CANVAS and CANVAS-R clinical trials, canagliflozin versus placebo; type: in vivo, human; settings: for Cardiovascular mortality, hazard ratio (95% confidence interval) / Total (all-cause) mortality, hazard ratio (95% confidence interval): full integrated dataset; for Primary outcome (cardiovascular mortality, nonfatal myocardial infarction, or nonfatal stroke), hazard ratio (95% confidence interval): canagliflozin vs placebo; for Primary outcome (cardiovascular mortality, nonfatal myocardial infarction, or nonfatal stroke), events per 1000 patient-years: integrated database of CANVAS and CANVAS-R
Source text: (§1) Two clinical trials were completed to assess the cardiovascular safety and efficacy of canagliflozin, and how any potential benefits might balance against known risks. The complete protocols for said trials, name CANVAS and CANVAS-R, which protocols are each incorporated in their entirety herein, may be found on www.clinicaltrials.gov (more specifically at the following urls: https://clinicaltrials.gov/ct2/show/NCT01032629?term=canvas&rank=1 and https://clinicaltrials.gov/ct2/show/NCT01989754?term=canvas-r&rank=1, respectively).
(§2) All potential participants completed a 2-week, single-blind, placebo run-in period. Randomization was done centrally through an interactive web response system using a computer-generated randomization schedule prepared by the study sponsor using randomly permuted blocks. Participants in CANVAS were randomly assigned in a 1:1:1 ratio to canagliflozin 300 mg, canagliflozin 100 mg, or matching placebo, and participants in CANVAS-R were randomly assigned in a 1:1 ratio to canagliflozin or matching placebo administered at an initial dose of 100 mg daily with optional up-titration to 300 mg from week 13. Participants and all study staff were masked to individual treatment allocations until the completion of the study. Use of other background therapy for glycemic management and other risk factor control was according to best practice instituted in line with local guidelines including Renin Angiotensin System (RAS) blockade.
(§3) Post-randomization, face-to-face follow-up was scheduled for 3 visits in the first year and at 6-month intervals thereafter, with alternating telephone follow-up between face-to-face assessments. Every follow-up included inquiry about primary and secondary outcome events and serious adverse events. Urinary albumin:creatinine ratio was measured every 26 weeks in CANVAS-R, and at Week 12 and then annually in CANVAS. Serum creatinine measurement with estimation of glomerular filtration rate (eGFR) was performed at least every 26 weeks in both trials. Individuals that prematurely discontinued study treatment continued scheduled follow-up wherever possible, with extensive efforts made to obtain full outcome data for all during the final follow-up window that spanned November 2016 to February 2017.
(§4) The primary outcome was a composite of cardiovascular mortality, nonfatal myocardial infarction, or nonfatal stroke. Secondary outcomes were total mortality; cardiovascular mortality; progression of albuminuria; and the composite of cardiovascular mortality and hospitalization for heart failure. Progression of albuminuria grade was defined as a more then 30% increase in albuminuria and a switch from either normoalbuminuria to microalbuminuria or macroalbuminuria, or from microalbuminuria to macroalbuminuria. In the event that sequential testing was not significant for all then remaining outcomes were scheduled for assessment as exploratory variables in the integrated dataset.
(§5) Evaluation of total hospitalizations was also prespecified.
(§6) All major cardiovascular events, renal outcomes and deaths, plus selected safety outcomes were ratified by Endpoint Adjudication Committees. Intermediate markers of cardiovascular risk and requirement for antihyperglycemic agents were assessed to help understand the observed effects on cardiovascular and renal outcomes. Analyses of safety were of adverse events coded using the latest version of the MedDRA Dictionary. For bone fracture, the primary prespecified analysis was for low-trauma fracture events but secondary analysis of all fractures was also done. Amputations were assessed overall but numbers of cases above and below the ankle were also reported.
(§7) The primary hypothesis test was of noninferiority for the hazard ratio (HR) for the primary outcome at the margin of 1.3 for all canagliflozin versus placebo using the full integrated dataset and the intent to treat approach. […]

[2] = system: men and women with type 2 diabetes and history or high risk of cardiovascular disease; assay: CANVAS clinical trial, canagliflozin 300 mg or 100 mg versus placebo; type: in vivo, human
Source text: as §1, §2, §3, §4, §5, §6, §7

[3] = system: men and women with type 2 diabetes and history or high risk of cardiovascular disease; assay: CANVAS-R clinical trial, canagliflozin 100 mg with optional up-titration to 300 mg versus placebo; type: in vivo, human
Source text: as §1, §2, §3, §4, §5, §6, §7

[4] = system: diabetic patients; settings: metformin on its own; cited from earlier work
[5] = CANVAS Program, vs placebo, listed as canagliflozin
[6] = CANVAS Program, canagliflozin group
[7] = canagliflozin compared to placebo, combined trials n=10,142
[8] = integrated CANVAS and CANVAS-R, canagliflozin group
[9] = integrated database with removal of all study time and mortality events accrued prior to Nov. 20, 2012
[10] = integrated database with removal of all study time and mortality events accrued prior to Nov. 20, 2012, vs placebo
[11] = vs placebo, listed as canagliflozin

## Cc1ccc([C@@H]2O[C@H](CO)[C@@H](O)[C@H](O)[C@H]2O)cc1Cc1ccc(-c2ccc(F)cc2)s1 [Canagliflozin, canagliflozin]
[1]; CANVAS Program, vs placebo
  Cardiovascular mortality, hazard ratio (95% confidence interval): 0.87 (0.72-1.06)
  Total (all-cause) mortality, hazard ratio (95% confidence interval): 0.87 (0.74-1.01)
  40% reduction in eGFR, RRT, or renal death, hazard ratio (95% confidence interval): 0.60 (0.47-0.77)
  40% reduction in eGFR, RRT, renal death or macroalbuminuria, hazard ratio (95% confidence interval): 0.57 (0.50-0.66)
  40% reduction in eGFR, RRT, renal or CV death, hazard ratio (95% confidence interval): 0.77 (0.66-0.89)
  Cardiovascular mortality or hospitalization for heart failure, hazard ratio (95% confidence interval): 0.78 (0.67-0.91)
  Hospitalization for heart failure, hazard ratio (95% confidence interval): 0.67 (0.52-0.87)
  Nonfatal myocardial infarction, hazard ratio (95% confidence interval): 0.85 (0.69-1.05)
  Nonfatal stroke, hazard ratio (95% confidence interval): 0.90 (0.71-1.15)
  Progression of albuminuria, hazard ratio (95% confidence interval): 0.73 (0.67-0.79)
  Regression of albuminuria, hazard ratio (95% confidence interval): 1.70 (1.51-1.91)
[1]; [5]
  Cardiovascular mortality, hazard ratio (95% confidence interval): 0.87
  Total (all-cause) mortality, hazard ratio (95% confidence interval): 0.87
  40% reduction in eGFR, RRT, or renal death, hazard ratio (95% confidence interval): 0.60
  Progression of albuminuria, hazard ratio (95% confidence interval): 0.73
[1]; [6]
  40% reduction in eGFR, RRT, or renal death, n/N: 124/5795
  40% reduction in eGFR, RRT, renal death or macroalbuminuria, n/N: 404/5795
  40% reduction in eGFR, RRT, renal or CV death, n/N: 379/5795
  Cardiovascular mortality or hospitalization for heart failure, n/N: 364/5795
  Cardiovascular mortality, n/N: 268/5795
  Cardiovascular mortality, nonfatal myocardial infarction, or nonfatal stroke, n/N: 585/5795
  Hospitalization for heart failure, n/N: 123/5795
  Nonfatal myocardial infarction, n/N: 215/5795
  Nonfatal stroke, n/N: 158/5795
  Progression of albuminuria, n/N: 1341/5196
  Regression of albuminuria, n/N: 885/1679
  Total mortality, n/N: 400/5795
[1]; CANVAS Program
  Primary outcome (cardiovascular mortality, nonfatal myocardial infarction, or nonfatal stroke), hazard ratio (95% confidence interval): 0.86 (0.75-0.97)
[1]; CANVAS Program, listed as canagliflozin
  Primary outcome (cardiovascular mortality, nonfatal myocardial infarction, or nonfatal stroke), hazard ratio (95% confidence interval): 0.86
[1]; canagliflozin compared to placebo group
  Use of other antihyperglycemic agents during follow-up, lower than placebo group: 9.3%
[1]; [7]
  Mean difference in body weight: -1.60 kg
  Mean difference in glycated hemoglobin: −0.58%
  Mean difference in systolic blood pressure: −3.93 mmHg
[1]; [8]
  Composite of sustained 40% reduction in eGFR, end-stage kidney disease or renal death, events per 1000 patient-years: 5.5 /1000 patient-years
  Progression of albuminuria grade, events per 1000 patient-years: 89.4 /1000 patient-years
[1]; canagliflozin group
  Primary outcome (cardiovascular mortality, nonfatal myocardial infarction, or nonfatal stroke), events per 1000 patient-years: 26.93 per 1000 patient-years
[1]; canagliflozin group, listed as canagliflozin
  Primary outcome (cardiovascular mortality, nonfatal myocardial infarction, or nonfatal stroke), events per 1000 patient-years: 26.9 per 1000 patient-years
[1]; [9]
  All-cause mortality, events per 1000 patient-years: 19.05 per 1000 patient-years
  Cardiovascular death, events per 1000 patient-years: 12.82 per 1000 patient-years
[1]; [10]
  All-cause mortality, hazard ratio (95% confidence interval): 0.90 (0.76-1.07)
  Cardiovascular death, hazard ratio (95% confidence interval): 0.96 (0.77-1.18)
[1]; multiple imputation for missing data, vs placebo
  Primary outcome hazard ratio when imputation for missing events was performed: 0.85
[2]; canagliflozin group
  40% reduction in eGFR, RRT, or renal death, n/N: 91/2888
  40% reduction in eGFR, RRT, renal death or macroalbuminuria, n/N: 292/2888
  40% reduction in eGFR, RRT, renal or CV death, n/N: 286/2888
  Cardiovascular mortality or hospitalization for heart failure, n/N: 269/2888
  Cardiovascular mortality, n/N: 207/2888
  Cardiovascular mortality, nonfatal myocardial infarction, or nonfatal stroke, n/N: 425/2888
  Hospitalization for heart failure, n/N: 85/2888
  Nonfatal myocardial infarction, n/N: 152/2888
  Nonfatal stroke, n/N: 106/2888
  Progression of albuminuria, n/N: 895/2655
  Regression of albuminuria, n/N: 434/786
  Total mortality, n/N: 301/2888
[2]; vs placebo
  40% reduction in eGFR, RRT, or renal death, hazard ratio (95% confidence interval): 0.56 (0.41-0.75)
  40% reduction in eGFR, RRT, renal death or macroalbuminuria, hazard ratio (95% confidence interval): 0.64 (0.54-0.76)
  40% reduction in eGFR, RRT, renal or CV death, hazard ratio (95% confidence interval): 0.74 (0.62-0.89)
  Cardiovascular mortality or hospitalization for heart failure, hazard ratio (95% confidence interval): 0.82 (0.67-0.99)
  Cardiovascular mortality, hazard ratio (95% confidence interval): 0.88 (0.70-1.10)
  Cardiovascular mortality, nonfatal myocardial infarction, or nonfatal stroke, hazard ratio (95% confidence interval): 0.88 (0.75-1.03)
  Hospitalization for heart failure, hazard ratio (95% confidence interval): 0.77 (0.55-1.08)
  Nonfatal myocardial infarction, hazard ratio (95% confidence interval): 0.85 (0.65-1.11)
  Nonfatal stroke, hazard ratio (95% confidence interval): 0.97 (0.70-1.35)
  Progression of albuminuria, hazard ratio (95% confidence interval): 0.80 (0.72-0.90)
  Regression of albuminuria, hazard ratio (95% confidence interval): 1.56 (1.30-1.87)
  Total mortality, hazard ratio (95% confidence interval): 0.84 (0.70-1.01)
[2]; [11]
  Progression of albuminuria, hazard ratio (95% confidence interval): 0.80
[3]
  Albumin:creatinine ratio progression, events per 1000 patient-years: 99.80 per 1000 patient-years
  Cardiovascular death or hospitalization for heart failure, events per 1000 patient-years: 15.85 per 1000 patient-years
  Cardiovascular death, events per 1000 patient-years: 10.06 per 1000 patient-years
[3]; canagliflozin group
  40% reduction in eGFR, RRT, or renal death, n/N: 33/2907
  40% reduction in eGFR, RRT, renal death or macroalbuminuria, n/N: 112/2907
  40% reduction in eGFR, RRT, renal or CV death, n/N: 93/2907
  Cardiovascular mortality or hospitalization for heart failure, n/N: 95/2907
  Cardiovascular mortality, n/N: 61/2907
  Cardiovascular mortality, nonfatal myocardial infarction, or nonfatal stroke, n/N: 160/2907
  Hospitalization for heart failure, n/N: 38/2907
  Nonfatal myocardial infarction, n/N: 63/2907
  Nonfatal stroke, n/N: 52/2907
  Progression of albuminuria, n/N: 446/2541
  Regression of albuminuria, n/N: 451/893
  Total mortality, n/N: 99/2907
[3]; vs placebo
  40% reduction in eGFR, RRT, or renal death, hazard ratio (95% confidence interval): 0.71 (0.45-1.11)
  40% reduction in eGFR, RRT, renal death or macroalbuminuria, hazard ratio (95% confidence interval): 0.48 (0.38-0.60)
  40% reduction in eGFR, RRT, renal or CV death, hazard ratio (95% confidence interval): 0.82 (0.62-1.08)
  Cardiovascular mortality or hospitalization for heart failure, hazard ratio (95% confidence interval): 0.72 (0.55-0.94)
  Cardiovascular mortality, hazard ratio (95% confidence interval): 0.86 (0.61-1.22)
  Cardiovascular mortality, nonfatal myocardial infarction, or nonfatal stroke, hazard ratio (95% confidence interval): 0.82 (0.66-1.01)
  Hospitalization for heart failure, hazard ratio (95% confidence interval): 0.56 (0.38-0.83)
  Nonfatal myocardial infarction, hazard ratio (95% confidence interval): 0.85 (0.61-1.19)
  Nonfatal stroke, hazard ratio (95% confidence interval): 0.82 (0.57-1.18)
  Progression of albuminuria, hazard ratio (95% confidence interval): 0.64 (0.57-0.73)
  Regression of albuminuria, hazard ratio (95% confidence interval): 1.80 (1.55-2.09)
  Total mortality, hazard ratio (95% confidence interval): 0.92 (0.70-1.21)
[3]; [11]
  Progression of albuminuria, hazard ratio (95% confidence interval): 0.64

## CN(C)C(=N)N=C(N)N [metformin]
[4]
  Average improvement in the HbA1c value: 1.0-1.5%
